From US20100256357A1, “HETEROCYCLES USEFUL AS INHIBITORS OF CARBONIC ANHYDRASE” (Agouron Pharmaceuticals, Inc., priority 2006, published 2010)
pIC50: −log10 of the molar value. Read-outs that look alike come from different tables or passages of the source.

Key:
human CA-II = target: T1, human CA-II (Homo sapiens, UniProt P00918); assay: Carbonic Anhydrase-II (CA-II) Fluorimetric Assay-IC50 Determination; format: biochemical; conditions: for pIC50: Kd ND, read-out: CA-II IC50
T1 construct: purchased Sigma-Aldrich C6165
Procedure: Carbonic Anhydrase-II (CA-II) Fluorimetric Assay-IC50 Determination
Compounds were diluted in DMSO at the concentration of 1 mM, then 50 μM and transferred to a 96-well plate for further dilutions (1:3 dilution, 11 points) in duplicate. Highest final concentration of compound in this CA-II Fluorimetric assay is 1 μM. Assays were conducted in a final volume of 100 μL in 50 mM Tris/HCl (pH 7.6), 100 mM Na2SO4 and 0.005% Tween-20 in a 96-well black assay plate. Fluorescein diacetate was used as the substrate. Enzyme inhibition was determined by pipetting 8 μL of human CA-II (5 nM, from Sigma-Aldrich, product #: C6165) into assay plate contained 2 μL of compound and 2 μL of substrate (10 μM) in 88 μL of assay buffer. The rate of the hydrolysis of fluorescein diacetate were measured spectrophometrically at 488 nm (excitation), 538 nm (emission) and 530 nm (cutoff) using a Molecular Devices SpectraMax M2 fluorescence reader at 25° C.

human CA-IV = target: T2, human CA-IV (Homo sapiens, UniProt P22748); assay: Carbonic Anhydrase-IV (CA-IV) Fluorescence Polarization Assay-IC50 Determination; format: binding; conditions: for inhibition at 0.2 µM: CA-IV Min dose 200 nM, read-out: CA-IV: % Inh @ Min dose
T2 construct: made in house; host or cells: Escherichia coli BL21(DE3)
T2 sequence (P22748 19-284 limits assumed): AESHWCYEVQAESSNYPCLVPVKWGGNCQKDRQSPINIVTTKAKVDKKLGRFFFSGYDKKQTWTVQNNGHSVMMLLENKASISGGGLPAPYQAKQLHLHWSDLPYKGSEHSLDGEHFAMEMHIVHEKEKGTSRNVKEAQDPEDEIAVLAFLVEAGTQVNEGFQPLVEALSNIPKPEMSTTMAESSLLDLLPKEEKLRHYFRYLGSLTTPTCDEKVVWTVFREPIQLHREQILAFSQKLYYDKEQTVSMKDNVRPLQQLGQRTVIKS
Procedure: Carbonic Anhydrase-IV (CA-IV) Fluorescence Polarization Assay-IC50 Determination
These cells were grown in Luria broth (LB) media (Biomyx) supplemented with 800 uM ZnCl2 at 37° C. until an O.D.600 of 0.7, at which point the cells were induced with 100 uM isopropyl-beta-D-thiogalactopyranoside (IPTG) for 20 hours at 20° C. The frozen pellet was resuspended in 50mM 2-morpholinoethanesulfonic acid (MES) at pH 6.0, 100 mM NaCl, 800 uM ZnCl2 and EDTA-Free protease inhibitors (Roche). The cells were lysed with a microfluidizer, the lysate was spun at 40,000 rpm for 45 minutes at 4° C., and the soluble fraction was dialyzed overnight at 4° C. in 50 mM MES pH 6.0, and 100 mM NaCl. The soluble fraction was then put over a 100 ml SP-Sepharose High Performance (GE Healthcare) column and eluted with a 50 mM MES pH 6.0, 750 mM NaCl gradient. The peak fractions were then concentrated, via an Amicon Ultra-4 10,000 MWCO (Millipore) spin column to 2.0 mL and loaded onto a Sephacryl S-100 High Resolution (GE Healthcare) column in 25 mM tris(hydroxymethyl)aminomethane hydrochloride (Tris-HCl) pH 7.0, and 100 mM NaCl. The peak fractions were then concentrated, via an Amicon Ultra-4 10,000 MWCO (Millipore) spin column, to 7.0 mg/mL and left exposed at room temperature overnight. […] T.; et al. Carbonic Anhydrase Inhibitors. Med. Res. Rev. […]
Assays were conducted in a final volume of 100 μL in 50 mM Tris/HCl (pH 7.6), 100 mM Na2SO4 and 0.005% Tween-20 in a 96-well black assay plate.

[1] = CA II Min dose 100 nM, read-out: CAII % Inh @ Min dose

Structure (SMILES): NS(=O)(=O)c1ccc(-n2nc(C(=O)N3CCc4ccccc4CC3)nc2Cc2ccccc2)cc1 [Example R-4, 4-[5-benzyl-3-(1245-tetrahydro-3H-3-benzoazepin-3-ylcarbonyl)-1H-124-triazol-1-yl]benzenesulfonamide]
- inhibition at 0.1 µM (human CA-II; [1]): 100%
- pIC50 (human CA-II): 8.47
- inhibition at 0.2 µM (human CA-IV): 74.3%
- pIC50 (human CA-IV; read-out: CA-IV IC50): 6.94

Structure (SMILES): CCCN(CC1CC1)C(=O)c1nc(Cc2ccccc2)n(-c2ccc(S(N)(=O)=O)cc2)n1 [Example R-5, 1-[4-(aminosulfonyl)phenyl]-5-benzyl-N-(cyclopropylmethyl)-N-propyl-1H-124-triazole-3-carboxamide]
- inhibition at 0.1 µM (human CA-II; [1]): 100%
- pIC50 (human CA-II): 8.66
- inhibition at 0.2 µM (human CA-IV): 66.4%
- pIC50 (human CA-IV; read-out: CA-IV IC50): 6.78

Structure (SMILES): NS(=O)(=O)c1ccc(-n2nc(C(=O)N3CCOc4ccccc4C3)nc2Cc2ccccc2)cc1 [Example R-7, 4-[5-benzyl-3-(23-dihydro-14-benzoxazepin-4(5H)-ylcarbonyl)-1H-124-triazol-1-yl]benzenesulfonamide]
- inhibition at 0.1 µM (human CA-II; [1]): 101%
- pIC50 (human CA-II): 8.43
- inhibition at 0.2 µM (human CA-IV): 59.1%
- pIC50 (human CA-IV; read-out: CA-IV IC50): 6.74

Structure (SMILES): NS(=O)(=O)c1ccc(-n2nc(C(=O)N3CC4CCC3C4)nc2Cc2ccccc2)cc1 (centres unmarked) [Example R-8, 4-[3-(2-azabicyclo[2.2.1]hept-2-ylcarbonyl)-5-benzyl-1H-124-triazol-1-yl]benzenesulfonamide]
- inhibition at 0.1 µM (human CA-II; [1]): 99%
- inhibition at 0.1 µM (human CA-II; read-out: CA-II % at 100 nM): 99%
- inhibition at 0.2 µM (human CA-IV): 56.9%
- pIC50 (human CA-IV; read-out: CA-IV IC50): 6.71

Structure (SMILES): CN(CC(O)c1ccccc1)C(=O)c1nc(Cc2ccccc2)n(-c2ccc(S(N)(=O)=O)cc2)n1 (centres unmarked) [Example R-9, 1-[4-(aminosulfonyl)phenyl]-5-benzyl-N-(2-hydroxy-2-phenylethyl)-N-methyl-1H-124-triazole-3-carboxamide]
- inhibition at 0.1 µM (human CA-II; [1]): 99%
- inhibition at 0.1 µM (human CA-II; read-out: CA-II % at 100 nM): 99%
- inhibition at 0.2 µM (human CA-IV): 58%
- pIC50 (human CA-IV; read-out: CA-IV IC50): 6.70

Structure (SMILES): CN(CCC#N)C(=O)c1nc(Cc2ccccc2)n(-c2ccc(S(N)(=O)=O)cc2)n1 [Example R-10]
- inhibition at 0.1 µM (human CA-II; [1]): 99%
- inhibition at 0.1 µM (human CA-II; read-out: CA-II % at 100 nM): 99%
- inhibition at 0.2 µM (human CA-IV): 58%
- pIC50 (human CA-IV; read-out: CA-IV IC50): 6.69

Structure (SMILES): NS(=O)(=O)c1ccc(-n2nc(C(=O)NCC3(c4ccccc4)CC3)nc2Cc2ccccc2)cc1 [Example R-12, 1-[4-(aminosulfonyl)phenyl]-5-benzyl-N-[(1-phenylcyclopropyl)methyl]-1H-124-triazole-3-carboxamide]
- inhibition at 0.1 µM (human CA-II; [1]): 101%
- inhibition at 0.1 µM (human CA-II; read-out: CA-II % at 100 nM): 101%
- inhibition at 0.2 µM (human CA-IV): 62.3%
- pIC50 (human CA-IV; read-out: CA-IV IC50): 6.69

Structure (SMILES): CCCCN(CC)C(=O)c1nc(Cc2ccccc2)n(-c2ccc(S(N)(=O)=O)cc2)n1 [Example R-14, 1-(4-(aminosulfonyl)phenyl]-5-benzyl-N-butyl-N-ethyl-1H-124-triazole-3-carboxamide]
- inhibition at 0.1 µM (human CA-II; [1]): 100%
- inhibition at 0.1 µM (human CA-II; read-out: CA-II % at 100 nM): 100%
- inhibition at 0.2 µM (human CA-IV): 59.7%
- pIC50 (human CA-IV; read-out: CA-IV IC50): 6.67

Structure (SMILES): NS(=O)(=O)c1ccc(-n2nc(CNCC3CCCCC3)cc2Cc2ccc(Cl)cc2)cc1 [QQ-1b, 4-[5-(4-chlorobenzyl)-3-{[(cyclohexylmethyl)amino]methyl}-1H-pyrazol-1-yl]benzenesulfonamide]
- pIC50 (human CA-IV; read-out: IC50_CAIV): 6.55

Structure (SMILES): CN(CCc1ccccn1)Cc1cc(Cc2ccc(Cl)cc2)n(-c2ccc(S(N)(=O)=O)cc2)n1 [QQ-1c, 4-[5-(4-chlorobenzyl)-3-{[methyl(2-pyridin-2-ylethyl)amino]methyl}-1H-pyrazol-1-yl]benzenesulfonamide]
- pIC50 (human CA-IV; read-out: IC50_CAIV): 6.42

Structure (SMILES): C[C@@H]1CN(Cc2cc(Cc3ccccc3)n(-c3ccc(S(N)(=O)=O)cc3)n2)C[C@H](C)O1 [QQ-1d, 4-(5-benzyl-3-{[(2R,6S)-2,6-dimethylmorpholin-4-yl]methyl}-1H-pyrazol-1-yl)benzenesulfonamide]
- pIC50 (human CA-IV; read-out: IC50_CAIV): 6.40

Structure (SMILES): CCCN(C)Cc1cc(Cc2ccccc2)n(-c2ccc(S(N)(=O)=O)cc2)n1 [QQ-1e, 4-(5-benzyl-3-{[methyl(propyl)amino]methyl}-1H-pyrazol-1-yl)benzenesulfonamide]
- pIC50 (human CA-IV; read-out: IC50_CAIV): 6.42

Structure (SMILES): CCCCN(C)Cc1cc(Cc2ccc(Br)cc2)n(-c2ccc(S(N)(=O)=O)cc2F)n1 [QQ-1f]
- pIC50 (human CA-IV; read-out: IC50_CAIV): 6.77

Structure (SMILES): NS(=O)(=O)c1ccc(-n2nc(CN3CC=CCC3)cc2Cc2ccccc2)c(F)c1 [QQ-1g, 4-[5-benzyl-3-(3,6-dihydropyridin-1(2H)-ylmethyl)-1H-pyrazol-1-yl]-3-fluorobenzenesulfonamide]
- pIC50 (human CA-IV; read-out: IC50_CAIV): 6.45

Structure (SMILES): C[C@@H]1CN(Cc2cc(Cc3ccccc3)n(-c3ccc(S(N)(=O)=O)cc3F)n2)C[C@H](C)O1 [QQ-1i, 4-(5-benzyl-3-{[(2R,6S)-2,6-dimethylmorpholin-4-yl]methyl}-1H-pyrazol-1-yl)-3-fluorobenzenesulfonamide]
- pIC50 (human CA-IV; read-out: IC50_CAIV): 6.32

Structure (SMILES): CCCCN(C)Cc1cc(Cc2ccccc2)n(-c2ccc(S(N)(=O)=O)cc2F)n1 [QQ-1j, 4-(5-benzyl-3-{[butyl(methyl)amino]methyl}-1H-pyrazol-1-yl)-3-fluorobenzenesulfonamide]
- pIC50 (human CA-IV; read-out: IC50_CAIV): 6.56

Structure (SMILES): NS(=O)(=O)c1ccc(-n2nc(CN3CC=CCC3)cc2Cc2ccc(Br)cc2)c(F)c1 [QQ-1k, 4-[5-(4-bromobenzyl)-3-(3,6-dihydropyridin-1(2H)-ylmethyl)-1H-pyrazol-1-yl]-3-fluorobenzenesulfonamide]
- pIC50 (human CA-IV; read-out: IC50_CAIV): 6.60

Structure (SMILES): NS(=O)(=O)c1ccc(-n2nc(CN3CC=CCC3)cc2Cc2ccccc2)cc1 [QQ-1l, 4-[5-benzyl-3-(3,6-dihydropyridin-1(2H)-ylmethyl)-1H-pyrazol-1-yl]benzenesulfonamine]
- pIC50 (human CA-IV; read-out: IC50_CAIV): 6.26

Structure (SMILES): CN(Cc1cc(Cc2ccccc2)n(-c2ccc(S(N)(=O)=O)cc2)n1)C1CCCCC1 [QQ-1m, 4-(5-benzyl-3-{[cyclohexyl(methyl)amino]methyl}-1H-pyrazol-1-yl)benzenesulfonamide]
- pIC50 (human CA-IV; read-out: IC50_CAIV): 6.50

Structure (SMILES): CCCCN(C)Cc1cc(Cc2ccc(Cl)cc2)n(-c2ccc(S(N)(=O)=O)cc2)n1 [QQ-1n, 4-[3-{[butyl(methyl)amino]methyl}-5-(4-chlorobenzyl)-1H-pyrazol-1-yl]benzenesulfonamide]
- pIC50 (human CA-IV; read-out: IC50_CAIV): 6.34

Structure (SMILES): CN(Cc1cc(Cc2ccc(Cl)cc2)n(-c2ccc(S(N)(=O)=O)cc2)n1)C1CCCCC1 [QQ-1o, 4-[5-(4-chlorobenzyl)-3-{[cyclohexyl(methyl)amino]methyl}-1H-pyrazol-1-yl]benzenesulfonamide]
- pIC50 (human CA-IV; read-out: IC50_CAIV): 6.51

Structure (SMILES): CCOC(=O)c1cc(C)n(-c2ccc(S(N)(=O)=O)cn2)n1 [mm-1, ethyl 1-[5-(aminosulfonyl)pyridin-2-yl]-5-methyl-1H-pyrazole-3-carboxylate]
- pIC50 (human CA-IV; read-out: IC50_CAIV): 5.98

Structure (SMILES): Cc1cc(C(=O)O)nn1-c1ccc(S(N)(=O)=O)cc1 [mm-2a, 1-[4-(aminosulfonyl)phenyl]-5-methyl-1H-pyrazole-3-carboxylic acid]
- pIC50 (human CA-IV; read-out: IC50_CAIV): ≤ 5.30

Structure (SMILES): NS(=O)(=O)c1ccc(-n2nc(C(=O)O)cc2Cc2ccccc2)cc1 [pp-2a, 1-[4-(aminosulfonyl)phenyl]-5-benzyl-1H-pyrazole-3-carboxylic acid]
- pIC50 (human CA-IV; read-out: IC50_CAIV): 6.31

Structure (SMILES): NS(=O)(=O)c1ccc(-n2nc(C(=O)O)cc2Cc2ccc(Cl)cc2)cc1 [pp-2b, 1-[4-(aminosulfonyl)phenyl]-5-(4-chlorobenzyl]-1H-pyrazole-3-carboxylic acid]
- pIC50 (human CA-IV; read-out: IC50_CAIV): 6.34

Structure (SMILES): NS(=O)(=O)c1ccc(-n2nc(CO)cc2Cc2ccccc2)c(F)c1 [qq-3, 4-[5-Benzyl-3-(hydroxymethyl)-1H-pyrazol-1-yl]-3-fluorobenzenesulfonamide]
- pIC50 (human CA-IV; read-out: IC50_CAIV): 6.43

Structure (SMILES): NS(=O)(=O)c1ccc(-n2nc(CO)cc2Cc2ccccc2)cc1 [qq-3b, 4-[5-benzyl-3-(hydroxymethyl)-1H-pyrazol-1-yl]benzenesulfonamide]
- pIC50 (human CA-IV; read-out: IC50_CAIV): 6.36

Structure (SMILES): NS(=O)(=O)c1ccc(-n2nc(CO)cc2Cc2ccc(Br)cc2)c(F)c1 [qq-3c, 4-[5-(4-bromobenzyl)-3-(hydroxymethyl)-1H-pyrazol-1-yl]-3-fluorobenzenesulfonamide]
- pIC50 (human CA-IV; read-out: IC50_CAIV): 6.33

Structure (SMILES): NS(=O)(=O)c1ccc(-n2nc(CO)c3c2CCCC3)cc1 [qq-3d, 4-[3-(hydroxymethyl)-4,5,6,7-tetrahydro-1H-indazol-1-yl]benzenesulfonamide]
- pIC50 (human CA-IV; read-out: IC50_CAIV): ≤ 5.30
